“And” between values parts separate entries of the source, which are not always exact repeats. Equal entries are not always repeated.
Columns and labels:
[1] = Molar enthalpy of transition or fusion; settings: Crystal; DSC
[2] = molar heat capacity at constant pressure; settings: 101.33 kPa, Crystal, DSC
[3] = for vapor or sublimation pressure: Liquid, Transpiration method

N#Cc1cccc2ccccc12 [1-cyanonaphthalene]
Settings	Molar enthalpy of transition or fusion [kcal/mol]
[1]	4.16

Settings	molar heat capacity at constant pressure	vapor or sublimation pressure [kPa]
[2], 268.9 K	144.7 J/K/mol and 156.8 J/K/mol	–
[2], 269.3 K	148.8 J/K/mol and 159.1 J/K/mol	–
[2], 269.7 K	152.4 J/K/mol and 161.1 J/K/mol	–
[2], 270.1 K	155.6 J/K/mol and 162.6 J/K/mol	–
[2], 270.5 K	158.2 J/K/mol and 164.1 J/K/mol	–
[2], 270.9 K	160.6 J/K/mol and 165.4 J/K/mol	–
[2], 271.3 K	162.5 J/K/mol and 166.5 J/K/mol	–
[2], 271.7 K	164.3 J/K/mol and 167.5 J/K/mol	–
[2], 272.1 K	168.4 J/K/mol and 165.9 J/K/mol	–
[2], 272.5 K	169.2 J/K/mol and 167.2 J/K/mol	–
[2], 272.9 K	168.6 J/K/mol and 170 J/K/mol	–
[2], 273.3 K	169.6 J/K/mol and 170.8 J/K/mol	–
[2], 273.6 K	170.5 J/K/mol and 171.4 J/K/mol	–
[2], 274 K	171.5 J/K/mol and 172.1 J/K/mol	–
[2], 274.4 K	172.1 J/K/mol and 172.7 J/K/mol	–
[2], 274.8 K	172.9 J/K/mol and 173.4 J/K/mol	–
[2], 275.2 K	173.5 J/K/mol and 173.9 J/K/mol	–
[2], 275.5 K	174.2 J/K/mol and 174.4 J/K/mol	–
[2], 275.9 K	174.6 J/K/mol and 174.9 J/K/mol	–
[2], 276.3 K	175.1 J/K/mol and 175.4 J/K/mol	–
[2], 276.7 K	175.5 J/K/mol and 175.6 J/K/mol	–
[2], 277 K	175.9 J/K/mol	–
[2], 277.1 K	175.7 J/K/mol	–
[2], 277.4 K	176 J/K/mol and 176.3 J/K/mol	–
[2], 277.8 K	176.2 J/K/mol and 176.6 J/K/mol	–
[2], 278.2 K	177 J/K/mol and 176.6 J/K/mol	–
[2], 278.5 K	177.5 J/K/mol and 177.1 J/K/mol	–
[2], 278.9 K	177.9 J/K/mol and 177.6 J/K/mol	–
[2], 279.3 K	178.4 J/K/mol and 178.1 J/K/mol	–
[2], 279.6 K	179 J/K/mol and 178.7 J/K/mol	–
[2], 280 K	179.6 J/K/mol and 179.5 J/K/mol	–
[2], 280.4 K	180.4 J/K/mol and 180.3 J/K/mol	–
[2], 280.7 K	181.1 J/K/mol	–
[2], 280.8 K	181.2 J/K/mol	–
[2], 281.1 K	181.9 J/K/mol and 182 J/K/mol	–
[2], 281.5 K	182.8 J/K/mol and 182.9 J/K/mol	–
[2], 281.8 K	183.7 J/K/mol	–
[2], 281.9 K	183.8 J/K/mol	–
[2], 282.2 K	184.7 J/K/mol and 184.8 J/K/mol	–
[2], 282.6 K	185.7 J/K/mol and 185.8 J/K/mol	–
[2], 282.9 K	186.7 J/K/mol and 186.6 J/K/mol	–
[2], 283.3 K	187.9 J/K/mol and 187.6 J/K/mol	–
[2], 283.7 K	188.9 J/K/mol and 188.4 J/K/mol	–
[2], 284 K	190 J/K/mol and 189 J/K/mol	–
[2], 284.4 K	190.9 J/K/mol and 189.8 J/K/mol	–
[2], 284.8 K	191.7 J/K/mol and 190.3 J/K/mol	–
[2], 285.1 K	192.3 J/K/mol and 190.7 J/K/mol	–
[2], 285.5 K	192.8 J/K/mol and 191 J/K/mol	–
[2], 285.9 K	193.1 J/K/mol and 191.4 J/K/mol	–
[2], 286.2 K	193.2 J/K/mol and 191.6 J/K/mol	–
[2], 286.6 K	193.3 J/K/mol and 191.7 J/K/mol	–
[2], 286.9 K	193.2 J/K/mol and 192 J/K/mol	–
[2], 287.3 K	193.3 J/K/mol and 192.4 J/K/mol	–
[2], 287.7 K	193.2 J/K/mol and 192.6 J/K/mol	–
[2], 288 K	193 J/K/mol	–
[2], 288.4 K	192.8 J/K/mol and 193.1 J/K/mol	–
[2], 288.8 K	192.4 J/K/mol and 193.1 J/K/mol	–
[2], 289.1 K	192.1 J/K/mol and 193.1 J/K/mol	–
[2], 289.5 K	191.7 J/K/mol and 193.1 J/K/mol	–
[2], 289.8 K	191.4 J/K/mol and 193.1 J/K/mol	–
[2], 290.2 K	191.3 J/K/mol and 193 J/K/mol	–
[2], 290.6 K	191.3 J/K/mol and 192.9 J/K/mol	–
[2], 290.9 K	191.6 J/K/mol and 192.9 J/K/mol	–
[2], 291.3 K	191.9 J/K/mol and 192.9 J/K/mol	–
[2], 291.7 K	192.2 J/K/mol and 193.1 J/K/mol	–
[2], 292 K	192.7 J/K/mol and 193.5 J/K/mol	–
[2], 292.4 K	193.3 J/K/mol and 193.6 J/K/mol	–
[2], 292.8 K	193.8 J/K/mol and 194.2 J/K/mol	–
[2], 293.1 K	194.5 J/K/mol and 194.6 J/K/mol	–
[2], 293.5 K	195.3 J/K/mol and 195.4 J/K/mol	–
[2], 293.8 K	196.1 J/K/mol	–
[2], 294.2 K	196.8 J/K/mol and 196.7 J/K/mol	–
[2], 294.6 K	197.8 J/K/mol and 197.4 J/K/mol	–
[2], 294.9 K	198.7 J/K/mol and 198.1 J/K/mol	–
[2], 295.3 K	199.6 J/K/mol and 198.9 J/K/mol	–
[2], 295.7 K	200.6 J/K/mol and 199.8 J/K/mol	–
[2], 296 K	201.6 J/K/mol and 200.6 J/K/mol	–
[2], 296.4 K	202.5 J/K/mol and 201.7 J/K/mol	–
[2], 296.8 K	203.6 J/K/mol and 202.9 J/K/mol	–
[3], 317.4 K	–	0.00232
[3], 321.3 K	–	0.00324
[3], 323.2 K	–	0.00381
[3], 326.3 K	–	0.00461
[3], 328.2 K	–	0.00556
[3], 331.2 K	–	0.00702
[3], 333.3 K	–	0.00785
[3], 335.2 K	–	0.00943
[3], 338.2 K	–	0.0116
[3], 340.2 K	–	0.01358
[3], 343.2 K	–	0.01719
[3], 345.1 K	–	0.01921
[3], 348.1 K	–	0.02329
[3], 351.1 K	–	0.02893
[3], 353.2 K	–	0.03229

Settings	Normal melting temperature [°C]
[3], Crystal, DTA	34

— the NIST ThermoML archive (doi:10.1016/j.tca.2018.07.026)
